Measured values as given in article PMC6204601, “In Vivo Selectivity and Localization of Reactive Oxygen Species (ROS) Induction by Osmium Anticancer Complexes That Circumvent Platinum Resistance” (Journal of Medicinal Chemistry, 2018).
Like-named read-outs stand apart in the source and are kept apart here.

Assays:
[1] = system: AB wild-type zebrafish embryos; format: in vivo; settings: 96 h exposure, read-out: LC50 (Danio rerio) AB-WT
[2] = system: A2780 cancer cells; assay: ROS/superoxide detection by flow cytometry, A2780; settings: A2780, 24 h, 1.0 × IC50 (pyocyanin positive control 0.1 mM); for % Population Q1 FL1-H- / FL2-H+: superoxide only; for % Population Q3 FL1-H+ / FL2-H-: total ROS only
Procedure: (§10) Reactive oxygen species (ROS) determination using flow cytometry. The generation of ROS and
(§11) superoxide in A2780 ovarian cancer cells was evaluated using the ROS/Superoxide detection kit (Enzo
(§12) Life Sciences) following the manufacturer’s protocol.
(§13) cells per well, and incubated for 24 h (310 K). After this time, cells were exposed to equipotent
The pellets were re-suspended in 500
(§14) μL PBS and stained with green fluorescent reagent for total ROS reading in the FL1-green channel (2
(§15) μL) and orange fluorescent reagent for superoxide reading in the FL2-red channel (2 μL). Positive
(§16) control samples were treated with pyocyanin (5 μL, 30 min). Single stained positive control samples
(§17) were used for compensation purposes. Data were obtained using a Becton Dickson FACScan Flow
(§18) Cytometer and processed using FlowJo V10 for Windows.

[3] = system: Singapore wild-type zebrafish embryos; format: in vivo, Danio rerio; settings: for LC50: zebrafish embryos, 96 h exposure, read-out: LC50 (Danio rerio) SG-WT
Procedure: (§1) In vivo biological studies […]
(§2) wild-type zebrafish (SGWT) embryos (< 5 dpf). All animals were maintained in accordance with ASPA […]
(§3) maintained. Light cycle: 14 hours day, 10 hours night.
1 L breeding tank. Pairs were set up the previous evening. Males and females were separated by a divider. The divider was removed around 9am (dawn). Embryos were collected and placed into petri dishes with fresh egg water. […]

[4] = system: HCT116 colorectal carcinoma cells; assay: Sulforhodamine B antiproliferative assay, HCT116; format: cell-based, human; settings: 24 h drug exposure + 72 h recovery, SRB; read-out: Antiproliferative activity (IC50) HCT116 Colon
[5] = system: Tubingen wild-type zebrafish embryos; assay: Zebrafish embryo toxicity (FET) test, TU-WT; format: in vivo; settings: 96 h exposure, read-out: LC50 (Danio rerio) TU-WT
[6] = system: HCT116p53-/- P53-knockout colorectal carcinoma cells; assay: Sulforhodamine B antiproliferative assay, HCT116p53-/-; format: cell-based, human; settings: 24 h drug exposure + 72 h recovery, SRB, read-out: Antiproliferative activity (IC50) HCT116p53-/- Colon
[7] = system: HOF human ovarian fibroblasts; assay: ROS/superoxide detection by flow cytometry, HOF; settings: 24 h, 1.0 × IC50 (pyocyanin positive control 0.1 mM); for % Population Q2 FL1-H+ / FL2-H+: ROS and superoxide; for % Population Q1 FL1-H- / FL2-H+: superoxide only; for % Population Q3 FL1-H+ / FL2-H-: total ROS only
Procedure: as §10, §11, §12, §13
The pellets were re-suspended in 500
as §14, §15, §16, §17, §18

[8] = system: MRC5 human lung fibroblasts; assay: Sulforhodamine B antiproliferative assay, MRC5; format: cell-based; settings: 24 h drug exposure + 72 h recovery, SRB; non-cancer fibroblasts
Procedure: (§4) In vitro biological studies
(§5) Sulforhodamine B cell viability colorimetric assay.
(§6) by ICP-OES analysis for metal content).
(§7) 72 h recovery time (310 K).
(§8) using slowly-running tap water and air dried.
(§9) Data were processed using Microsoft Excel
IC50 values (concentrations at which […]
After this time, cells were […]

[9] = system: A2780Cis cisplatin-resistant ovarian carcinoma cells; assay: Sulforhodamine B antiproliferative assay, A2780Cis; format: cell-based, human; settings: 24 h drug exposure + 72 h recovery, SRB
[10] = system: Singapore wild-type zebrafish; settings: 1 or 2× LC50, 96 h, green ROS probe, confocal
Procedure: as §1, §2, §3
1 L breeding tank. Pairs were set up the previous evening. Males and females were separated by a divider. The divider was removed around 9am (dawn). Embryos were collected and placed into petri dishes with fresh egg water.
Confocal microscopy (zebrafish). […]
or positive control samples.

[11] = system: A2780 cancer cells; settings: A2780, 20 μM verapamil, normalised Os
Procedure: as §4
Cell culture. All cell lines were obtained from the European Collection of Cell Cultures (ECACC). […]
supplemented with 10% foetal calf serum, 1% 2 mM glutamine and 1% penicillin/streptomycin.
HCT116, HCT1116Ox, HCT116p21-/- and HCT116p53-/-, all of colon origin, were grown in McCoy’s Modified 5A medium supplemented with 10% foetal calf serum, 1% 2 mM glutamine and 1% penicillin/streptomycin. HOF normal ovarian fibroblasts were grown in fibroblast growth medium supplemented with 2% foetal calf serum, 1% 2 mM penicillin/streptomycin and 1% fibroblast growth factor. Cells were grown as adherent monolayers in 75 cm2 culture flasks at 310 K in a 5% CO2 humidified atmosphere and passaged at regular intervals using trypsin-EDTA.
After this time, the cells were washed with PBS and supplied
Sulforhodamine B cell viability colorimetric assay. Briefly, 5000 cells were seeded in a 96-well plate […]
mM) were prepared in medium with 5% v/v DMSO (concentration was determined after drug exposure by ICP-OES analysis for metal content). […] Cell viability was determined using the Sulforhodamine B assay.1 Cells […]
50% cell death occurred) are reported as averages with calculated standard deviations. Experiments were performed in triplicate as part as two independent experiments, and statistics calculated using two-tailed t-test assuming unequal variances (Welch’s t-test). […]

[12] = system: A2780 ovarian carcinoma cells; assay: Sulforhodamine B antiproliferative assay, A2780; format: cell-based, human; settings: SRB
[13] = system: HCT116Ox oxaliplatin-resistant colorectal carcinoma cells; assay: Sulforhodamine B antiproliferative assay, HCT116Ox; format: cell-based, human; settings: 24 h drug exposure + 72 h recovery, SRB, read-out: Antiproliferative activity (IC50) HCT116Ox Colon
[14] = system: HCT116p21-/- P21-knockout colorectal carcinoma cells; assay: Sulforhodamine B antiproliferative assay, HCT116p21-/-; format: cell-based, human; settings: 24 h drug exposure + 72 h recovery, SRB, read-out: Antiproliferative activity (IC50) HCT116p21-/- Colon
[15] = system: A549 lung carcinoma cells; assay: Sulforhodamine B antiproliferative assay, A549; format: cell-based, human; settings: 24 h drug exposure + 72 h recovery, SRB
[16] = system: HOF human ovarian fibroblasts; assay: Sulforhodamine B antiproliferative assay, HOF; format: cell-based; settings: 24 h drug exposure + 72 h recovery, SRB; non-cancer fibroblasts
Procedure: as §4, §5, §6, §7, §8, §9

[17] = system: HCT116 human colorectal cancer cells xenografts; settings: cited from earlier work
[18] = CV vs Ag/AgCl, 100 mV/s, 10^–3 M, CH3CN; electrochemically reversible
[19] = 24 h drug exposure + 72 h recovery in drug-free medium, read-out: Antiproliferative activity (IC50) A2780 Ovarian

| SMILES | LC50 [1] [µM] | % Population Q4 FL1-H- / FL2-H- [2] [%] | % Population Q1 FL1-H- / FL2-H+ [2] [%] | % Population Q3 FL1-H+ / FL2-H- [2] [%] | LC50 [3] [µM] | IC50 [4] [µM] | LC50 [5] [µM] | IC50 [6] [µM] | % Population Q4 FL1-H- / FL2-H- [7] [%] | % Population Q2 FL1-H+ / FL2-H+ [7] [%] | % Population Q1 FL1-H- / FL2-H+ [7] [%] | % Population Q3 FL1-H+ / FL2-H- [7] [%] | IC50 [8] [µM] | IC50 [9] [µM] | ROS generated in vivo in zebrafish [10] | IC50 [12, 19] [nM] | IC50 [13] [µM] | IC50 [14] [µM] | IC50 [15] [µM] | IC50 [16] [µM] | also measured |
| --- | --- | --- | --- | --- | --- | --- | --- | --- | --- | --- | --- | --- | --- | --- | --- | --- | --- | --- | --- | --- | --- |
| Cc1ccc(C(C)C)cc1.Cc1ccc(S(=O)(=O)[N-]C(c2ccccc2)C([NH-])c2ccccc2)cc1.[Os+2] (stereo not shown) [Complex 1, [Os(p-cymene)(Ts-DPEN)]] | 4.3 ± 0.7 | 2.4 ± 0.9 | 1.2 ± 0.2 | 0.3 ± 0.1 | 2.4 ± 0.4 | 37 ± 1 | 2.6 ± 0.3 | 62 ± 3 | 7.3 ± 0.5 | 38 ± 1 | 9.1 ± 0.8 | 45.4 ± 0.7 | 21.4 ± 0.7 | 21.6 ± 0.2 | elevated levels of ROS | 15500 ± 500 | 51 ± 2 | 106 ± 2 | 21.1 ± 0.3 | 29.9 ± 0.5 | % accumulation (recovery time) 48 h [11]: 30 ± 2%; % accumulation (recovery time) 72 h [11]: 17.8 ± 0.3% |
| CN(C)c1ccc(N=Nc2ccccn2)cc1.Cc1ccc(C(C)C)cc1.F[P-](F)(F)(F)(F)F.[Cl][Os+] [Complex 9, [Os(Azpy-NMe2)(p-cymene)Cl]PF6] | 14 ± 2 | 0 ± 0 | 0 ± 0 | 3.0 ± 0.2 | 13.61 ± 0.09 | 21.9 ± 0.7 | 12 ± 1 | 3.2 ± 0.3 | 15 ± 1 | 13.8 ± 0.1 | 11.7 ± 0.8 | 60 ± 2 | 7.1 ± 0.2 | 0.37 ± 0.03 |  | 1800 ± 100 | 5.8 ± 0.7 | 4 ± 0.3 | 36.6 ± 0.8 | 11.1 ± 0.9 | % Population Q2 FL1-H+ / FL2-H+ ([2]; ROS and superoxide): 97.0 ± 0.2% |
| CN(C)c1ccc(N=Nc2ccccn2)cc1.Cc1ccc(C(C)C)cc1.F[P-](F)(F)(F)(F)F.[I][Os+] [Complex 10, [Os(Azpy-NMe2)(p-cymene)I]PF6] | 16.8 ± 0.8 | 0.41 ± 0.02 | 1.65 ± 0.09 | 2.47 ± 0.08 | 24.3 ± 0.4 | 0.26 ± 0.03 | 17 ± 1 | 1.1 ± 0.07 | 3.9 ± 0.3 | 61 ± 1 | 11.3 ± 0.5 | 24.1 ± 0.9 | 4.5 ± 0.3 | 0.15 ± 0.01 | elevated levels of ROS | 150 ± 10 | 0.96 ± 0.05 | 1.64 ± 0.08 | 1.1 ± 0.2 | 2.32 ± 0.01 | Fold less toxic toward zebrafish embryos compared to cisplatin ([3]; LC50 ratio vs cisplatin): 40 ×; Effect on growth of xenografts ([17]; HCT116 xenografts in mice): delay the growth of xenografts; Toxic side effects in xenograft-bearing mice ([17]; xenograft-bearing mice): few toxic side effects; First reduction step potential [18]: ca. −0.4 V |
| CN(C)c1ccc(N=Nc2ccccn2)cc1.F[P-](F)(F)(F)(F)F.[Cl][Os+].c1ccc(-c2ccccc2)cc1 [Complex 11, [Os(Azpy-NMe2)(biphenyl)Cl]PF6] | 12 ± 1 |  |  |  | 16.8 ± 0.8 | 7.2 ± 0.05 | 15.8 ± 0.9 | 28 ± 1 |  |  |  |  | 16.9 ± 0.1 | 16.8 ± 0.2 |  | 3900 ± 300 | 10 ± 0.9 | 67 ± 3 | 20 ± 1 | 27 ± 2 |  |
| CN(C)c1ccc(N=Nc2ccccn2)cc1.F[P-](F)(F)(F)(F)F.[I][Os+].c1ccc(-c2ccccc2)cc1 [Complex 12, [Os(Azpy-NMe2)(biphenyl)I]PF6] | 7.7 ± 0.1 |  |  |  | 6.6 ± 0.4 | 0.82 ± 0.09 | 6.5 ± 0.8 | 0.39 ± 0.02 |  |  |  |  | 0.42 ± 0.03 | 0.11 ± 0.01 |  | 140 ± 10 | 0.33 ± 0.05 | 0.33 ± 0.02 | 0.27 ± 0.03 | 0.35 ± 0.02 | First reduction step potential [18]: ca. −0.4 V |
| F[P-](F)(F)(F)(F)F.Oc1ccc(N=Nc2ccccn2)cc1.[I][Os+].c1ccc(-c2ccccc2)cc1 [Complex 13, [Os(Azpy-OH)(biphenyl)I]PF6] | 7.4 ± 0.2 |  |  |  | 8 ± 0.1 | 0.15 ± 0.01 | 7.2 ± 0.2 | 0.13 ± 0.01 |  |  |  |  | 0.22 ± 0.01 | 0.13 ± 0.02 |  |  | 0.14 ± 0.01 | 0.3 ± 0.01 | 0.52 ± 0.06 | 0.32 ± 0.09 | IC50 ([12]; 24 h drug exposure + 72 h recovery, value in nM, read-out: IC50 in A2780): 140 nM |
